This assay deals with Nuclear receptor subfamily 1 group D member 1 (Homo sapiens) (UniProt P20393). Briefly: modulators of Rev-erb alpha DNA binding, dose response, biochemical, FITC-DNA, fluorescence polarization (AID 1259321). On the technique in general: Fluorescence polarisation rises when a labelled molecule tumbles more slowly, as on binding a larger partner.

Activity calls are given as the source filed them.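 How the source made its calls: active means half-maximal concentration for changing protein binding to DNA, from the fitted dose curve, below 10 micromolar; inactive means the rest.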 A value given as a limit tells only on which side of the number the result lay.

Chain of Nuclear receptor subfamily 1 group D member 1 (Homo sapiens) (P20393 whole entry, looked up): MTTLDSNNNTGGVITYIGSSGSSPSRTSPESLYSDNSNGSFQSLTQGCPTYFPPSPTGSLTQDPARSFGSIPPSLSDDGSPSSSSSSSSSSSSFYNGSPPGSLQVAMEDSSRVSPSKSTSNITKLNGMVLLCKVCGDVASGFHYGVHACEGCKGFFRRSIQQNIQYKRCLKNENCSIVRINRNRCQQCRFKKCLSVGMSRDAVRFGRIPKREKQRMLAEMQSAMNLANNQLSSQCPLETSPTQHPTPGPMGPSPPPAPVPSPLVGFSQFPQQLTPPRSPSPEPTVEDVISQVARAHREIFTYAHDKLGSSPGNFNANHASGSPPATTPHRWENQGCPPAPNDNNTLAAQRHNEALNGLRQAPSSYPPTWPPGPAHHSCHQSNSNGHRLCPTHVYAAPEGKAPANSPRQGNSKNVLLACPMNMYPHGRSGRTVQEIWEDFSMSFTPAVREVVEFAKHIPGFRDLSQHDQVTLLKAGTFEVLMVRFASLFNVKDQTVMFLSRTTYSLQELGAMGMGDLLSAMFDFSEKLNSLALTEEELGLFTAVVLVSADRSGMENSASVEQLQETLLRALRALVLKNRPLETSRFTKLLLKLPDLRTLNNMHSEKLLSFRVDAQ

`Cc1cc(OC(C)C(=O)NCc2ccccn2)c2c(C)c(Cc3ccccc3)c(=O)oc2c1` (stereo unspecified): the IC50 was 2.52 µM. As to `Cc1[nH]c2ccccc2c1/C=C/c1cc[n+](C)cc1`, the IC50 is 4.41 µM. For the molecule `CCN1/C(=C/c2ccc3cccc(C)c3[n+]2CC)Sc2ccccc21`, the IC50 is 2.04 µM. Consider `CSc1ccccc1-c1nnc(-c2ccc(Cl)c(Cl)c2)o1`, for which the IC50 was 8.81 µM. Regarding `Cc1nn(C)c(C)c1N1C(=O)c2cccc3c(N)ccc(c23)C1=O`, the IC50 is 1.13 µM.

For `C=CCSc1nc(N)c(C#N)c(-c2ccccc2)c1C#N`, the IC50 entry is “inactive”.

For `COc1ccc(-n2nc(C(=O)NCC(=O)Nc3cc(Cl)c(OC)cc3OC)c3ccccc3c2=O)cc1`, the IC50 entry is “inactive”.

In the case of `Cc1c(Cl)cc(C(C)C)c(O)c1CN1CCOCC1`, the IC50 is > 40 µM (inactive).

Take `CCCc1cc(=O)oc2cc(C)cc(OCC(=O)Nc3ccc(S(N)(=O)=O)cc3)c12`: the IC50 is > 40 µM (inactive). As for `COC(=O)c1sc2nc(-c3ccccc3)c3c(c2c1N)CCCC3`, the IC50 entry was “inactive”. For `COc1ccc(C(C)=O)cc1CSc1nc2ccccc2c(=O)n1-c1cccc(C)c1`, the IC50 is 2.17 µM. For `COc1ccc(OC)c(Nc2nc(-c3ccccc3O)nc3ccccc23)c1`, the half-maximal inhibitory concentration (IC50) is 9.61 µM. Consider `CCc1cc2ccc(OC)cc2nc1SCC(=O)Nc1cc(C)on1`, for which the IC50 is > 40 µM (inactive). The same measure for `COc1cc(OC)cc(C(=O)OCc2cc3ccccc3[nH]c2=O)c1`: “inactive”; for `CCN1C(=O)/C(=C/C=C2/SCCN2C)SC1=S`: “inactive”; for `Cc1nc(SCC(=O)NCc2ccccc2)c2oc3ccccc3c2n1`: 4.18 µM.

As for `COc1nc(-c2ccc(Cl)cc2)ccc1-c1noc(-c2cccs2)n1`, the IC50 entry was “inactive”. Take `COc1ccc(-c2cc3c(=O)n(CC(=O)Nc4ccc(C(C)=O)cc4)ncn3n2)cc1`: the IC50 entry was “inactive”. As to `COc1ccc(-c2nc3c4ccccc4ccn3c2C=O)cc1`, the IC50 entry was “inactive”.

Turning to `COc1ccc(OC)c(-c2csc(NC(=O)c3ccc4c(c3)OCO4)n2)c1`, the concentration for half-maximal inhibition (IC50) was 3.24 µM. With `Cc1nn2c(N)c(C#N)cnc2c1-c1ccc(Cl)cc1`, the IC50 is 6.12 µM. As for `Oc1ccccc1-c1nc(N2CCCC2)c2ccccc2n1`, the IC50 was 2.1 µM. `COc1ccc(CC(=O)Nc2cc(C)c3c(=O)oc4ccccc4c3n2)cc1`: the IC50 is 4.42 µM. In the case of `O=c1c2ccccc2nc2sc(Nc3ccc(F)cc3)nn12`, the IC50 entry is “inactive”.

In the case of `O=C(COC(=O)c1sc2cc(F)ccc2c1Cl)Nc1ncc(Cl)cc1Cl`, the IC50 was > 40 µM (inactive). As to `Cn1c(=O)c(NCCO)c2c3c(cccc31)C(=O)c1ccccc1-2`, the IC50 was 3.63 µM.

For `Cc1ccc(-n2c(O)c(/C=N/c3ncc(Br)cc3Br)c(=O)[nH]c2=O)cc1`, the IC50 entry is “inactive”. With `CC(=O)c1cccc(NC(=O)c2csc(-n3nc(C)cc3C(F)(F)F)n2)c1` the figure was 3.61 µM; with `Oc1ccccc1-c1nc(NCc2ccccc2)c2ccccc2n1`, > 40 µM (inactive); with `CC(=O)OCC1OC(n2c(-c3ccc(Cl)cc3)ccc(C#N)c2=S)C(OC(C)=O)C(OC(C)=O)C1OC(C)=O` (stereo unspecified), “inactive”. Consider `CN(CCC#N)c1ccc(/C=C(\C#N)c2ccccn2)cc1`, for which the IC50 was 5.63 µM. Consider `CCc1ccc(-c2cc(C(F)(F)F)n3nc(C(=O)Nc4c(C)nn(Cc5ccccc5Cl)c4C)cc3n2)s1`, for which the IC50 entry is “inactive”. With `CN1C(=O)c2cc(NS(=O)(=O)c3ccc(F)cc3)ccc2OC[C@H]2O[C@@H](CC(=O)NCC(F)(F)F)CC[C@@H]21`, the IC50 is 1.62 µM. Consider `COc1ccc2c(Cl)c(-c3nnc(SCC(=O)c4ccccc4)n3C)sc2c1`, for which the half-maximal inhibitory concentration (IC50) was 3.42 µM. With `Cc1cc(C)c(N=C2SCC(=O)N2Cc2ccco2)c(C)c1` the figure was 7.22 µM; with `COc1cccc(OC)c1-c1nn2c(-c3cc(-c4ccccc4)n[nH]3)nnc2s1`, “inactive”; with `C/C=C(/C(=C/C)c1ccc(O)cc1)c1ccc(O)cc1`, > 40 µM (inactive). Take `O=C(COc1ncnc2c(Cl)cc(Cl)cc12)NC1CCCCCC1`: the half-inhibitory concentration (IC50) was 0.847 µM.

Take `COc1ccccc1CNc1ncnc2cc(Cl)ccc12`: the IC50 is 2.42 µM. Regarding `Cc1ccc(-n2c(N)c(C#N)c(-c3ccc(Cl)cc3)c(C#N)c2=O)cc1`, the concentration for half-maximal inhibition (IC50) is 4.59 µM. In the case of `COC1C(CO)OC(n2c3c(Cl)cccc3c3c4c(c5c6cccc(Cl)c6[nH]c5c32)C(=O)NC4=O)C(O)C1O` (stereo unspecified), the IC50 result was “inactive”.

For `CC(C)NC(=O)CSc1nc(-c2cccs2)cc(-c2ccccc2)c1C#N`, the IC50 is 3.27 µM.

`CCOC(=O)c1cccc2c(=O)c(C(=O)c3ccc(Cl)cc3)c(C(=O)OC)[nH]c12`: the IC50 was > 40 µM (inactive). The same measure for `Cc1ccc(-c2cc(C(F)F)nc3sc4c(=O)[nH]cnc4c23)cc1`: 6.05 µM; for `COc1ccc(C(=O)Nc2nnc(Cc3ccccc3)s2)c(OC)c1`: “inactive”; for `COc1ccc(-c2c(C)nc3c(-c4ccsc4)cnn3c2N)cc1`: 9.42 µM. With `Cc1ccc2[nH]c(=O)c(CN(C(=O)c3cccs3)c3ccccc3)cc2c1` the figure was 3.81 µM; with `CC(=O)Oc1c(/C=C(\C#N)C(N)=O)[nH]c2ccccc12`, 2.18 µM. The same measure for `CCOC(=O)N1CCN(c2ncnc3c2oc2nc(C(C)C)c4c(c23)CCC4)CC1`: 5.3 µM; for `CCc1ccc(NC(=O)CSc2nc3ncc(Br)cc3[nH]2)cc1`: 1.53 µM. Take `Cc1nc(N2CCN(c3ccccn3)CC2)c2c(C)c(C(=O)N3CCN(c4cccc(Cl)c4)CC3)sc2n1`: the IC50 was > 40 µM (inactive).

With `O=C(COc1ncnc2ccc(Br)cc12)NCc1ccc2c(c1)OCO2`, the IC50 was 1.94 µM.

As for `CCOC(=O)c1sc(=NC(=O)c2ccc(OC(C)C)cc2)n(C)c1C`, the IC50 is 0.933 µM. Regarding `O=[N+]([O-])c1ccc(N2CCCC2)c2ccncc12`, the IC50 was > 40 µM (inactive). The same measure for `CN(C)c1ccc(C=Cc2nccc3ccccc23)cc1`: > 40 µM (inactive); for `COC(=O)c1cccc(Cn2ccc3ccc(-c4ccc5ccn(C(=O)c6cccc(OC)c6)c5c4)cc32)c1`: > 40 µM (inactive); for `Cc1ccccc1OCC(=O)Nc1ccc2c(c1)C(=O)c1ccccc1C2=O`: > 40 µM (inactive). Consider `O=C(Nc1nc(-c2cccs2)c(-c2cccs2)s1)C1CCCC1`, for which the IC50 is 2.86 µM.

Regarding `CCOc1ccc(N=Nc2c(=O)[nH]n3c(=O)cc(C)[nH]c23)cc1`, the IC50 was > 40 µM (inactive).

As to `CCOC(=O)c1sc(NC(=S)NC(=O)c2cccc(OC)c2)nc1C`, the IC50 is 8.54 µM. With `Cc1n[nH]c(C)c1N1C(=O)c2cccc3c(N4CCCCCC4)ccc(c23)C1=O` the figure was 3.61 µM. Regarding `CCCCCn1c(=O)c(C(=O)Nc2ccccc2Cl)c(O)c2ccccc21`, the IC50 is > 40 µM (inactive). For `COc1ccc(Cl)cc1-c1cc(C(=O)Nc2ccc(F)cc2)[nH]n1`, the IC50 is 3.13 µM.

As to `O=C(CSc1nc2ccccc2nc1N1CCCCC1)N1CCN(S(=O)(=O)c2cc(Cl)ccc2Cl)CC1`, the concentration for half-maximal inhibition (IC50) was 4.85 µM.

For the molecule `C=CCn1cc(/C=C/c2cc[n+](C)cc2)c2ccccc21`, the IC50 is > 40 µM (inactive).

Take `O=C(CCn1c(SCC(=O)c2ccccc2)nc2ccccc2c1=O)NCc1ccc(F)cc1`: the IC50 is > 40 µM (inactive). Regarding `Cc1c(C2N3CC4(C)CN2CC(C)(C3)C4=O)c2ccccc2n1C` (stereo unspecified), the IC50 entry is “inactive”. On to `Cc1ccc(C2(C(F)(F)F)NC(=O)N3C(=C2C#N)Nc2ccccc23)cc1` (stereo unspecified), for which the half-maximal inhibitory concentration (IC50) is 2.68 µM. `COc1ccc2cc(OCC(=O)NNC(=O)Nc3ccc(F)cc3)ccc2c1`: the IC50 is > 40 µM (inactive).

`CCN(CC)c1ccc(/C=C2\C(=O)NC(=S)N(C)C2=O)o1`: the IC50 was 4.36 µM.

Turning to `CC1(C)Cc2c(sc3c2c(N)nc(=S)n3Cc2ccccc2)CO1`, the IC50 result was “inactive”. Consider `Cn1c(N)c(C(=O)CSc2nn(-c3ccc(F)cc3)c(=S)s2)c(=O)n(C)c1=O`, for which the IC50 was > 40 µM (inactive).

With `COC(=O)Cn1c(=NC(=O)c2ccc(OC)c(OC)c2)sc2cc(OC)ccc21`, the IC50 was > 40 µM (inactive). In the case of `CCOc1ccc(C(=O)Nc2nc(C)c(C(=O)OC)s2)cc1`, the IC50 is 2.2 µM.

Consider `CC(=O)c1cnc2c(-c3cccc(Br)c3)cnn2c1C`, for which the IC50 is > 40 µM (inactive). For `Cc1c(C#N)c(N)nc2c3c(sc12)NC(=O)CC3c1ccc(Cl)cc1` (stereo unspecified), the IC50 is > 40 µM (inactive).

As to `COc1nc(-c2ccccc2)ccc1-c1noc(-c2cccs2)n1`, the IC50 is > 40 µM (inactive). On to `CC1=NN(c2ccccc2)C(=O)/C1=C\C=C1/N(C)c2ccccc2C1(C)C`, for which the IC50 is > 40 µM (inactive).

`COc1ccc(-n2nc(C(=O)NCC(=O)Nc3cccc(Cl)c3)c3ccccc3c2=O)cc1OC`: the half-inhibitory concentration (IC50) is 2.6 µM. Turning to `CCN(Cc1nc2cc(Cl)ccc2c(=O)[nH]1)C(=O)c1cc2c(s1)CCCCC2`, the IC50 is 3.21 µM. On to `COC(=O)c1ccc(CSc2ncnc3c2oc2ccccc23)o1`, for which the IC50 is 2.73 µM.

With `N#CC1=C(SCC(N)=O)NC2=C(C(=O)c3ccccc32)C1c1ccc(Cl)cc1` (stereo unspecified), the IC50 was 7.01 µM. On to `COc1ccc(C(C)=O)cc1CSc1nc2ccccc2c(=O)n1-c1ccccc1`, for which the IC50 is > 40 µM (inactive). For the molecule `COc1ccc(S(=O)(=O)N2CCc3ccccc32)cc1C(=O)Nc1ccc(NC(C)=O)cc1`, the IC50 is 5.19 µM.

On to `Clc1ccc(-c2ccnc(Oc3cc(Cl)ccc3Cl)n2)cc1`, for which the IC50 is > 40 µM (inactive). Take `CCN1C(=O)CSC1=NC1C2CC3CC(C2)CC1C3` (stereo unspecified): the IC50 is 4.66 µM.

Take `Cc1cc(C)c2cc(C#N)c(SCC(=O)NCC3CCCO3)nc2c1` (stereo unspecified): the IC50 is 3.95 µM. As for `CCN1/C(=C/c2ccc3cc(C)cc(C)c3[n+]2CC)Sc2cc(C)ccc21`, the IC50 was > 40 µM (inactive).

Regarding `C=CCN1C(=O)/C(=C2/Sc3ccc(OC)cc3N2C)SC1=NCc1ccccc1`, the IC50 was 6.32 µM. As for `NS(=O)(=O)c1ccc(CCn2c(=S)[nH]c3ccc(F)cc3c2=O)cc1`, the IC50 is > 40 µM (inactive). For `Cc1ccc2cc(-c3noc(C4CCCCC4)n3)c(=O)[nH]c2c1`, the IC50 entry is “inactive”.

What is called IC50 is the point on the concentration scale where inhibition reaches its midpoint.
